# Measurements reported in ChEMBL document CHEMBL5360558, “Molecular design, synthesis and anticancer activity of new thiopyrano[2,3-d]thiazoles based on 5-hydroxy-1,4-naphthoquinone (juglone)” (Eur J Med Chem, 2023).
# What was measured:
# K562 [1] = test: Growth inhibition against human K562 cells assessed as total growth inhibitory concentration incubated for 48 hrs by sulforhodamine B spectrophotometric assay; format: functional
# CCRF-CEM [2] = test: Induction of cell cycle arrest in human CCRF-CEM cells assessed as RNA synthesis at 4.14 uM incubated for 3 hrs by […] incorporation based flow cytometry analysis (reference value: 31.8 +/- 1.17%); format: functional
# Malme-3M = test: Growth inhibition against human Malme-3M cells assessed as total growth inhibitory concentration incubated for 48 hrs by sulforhodamine B spectrophotometric assay; format: functional
# BT-549 [3] = test: Growth inhibition of human BT-549 cells incubated for 48 hrs by sulforhodamine B spectrophotometric assay; format: functional
# TK-10 = test: Growth inhibition against human TK-10 cells assessed as total growth inhibitory concentration incubated for 48 hrs by sulforhodamine B spectrophotometric assay; format: functional
# RPMI-8226 [4] = test: Growth inhibition against human RPMI-8226 cells assessed as lethal concentration incubated for 48 hrs by sulforhodamine B spectrophotometric assay; format: functional; settings: read-out: LC50 (the source's name)
# K562 [5] = test: Growth inhibition against human K562 cells assessed as lethal concentration incubated for 48 hrs by sulforhodamine B spectrophotometric assay; format: functional; settings: read-out: LC50 (the source's name)
# CCRF-CEM [6] = test: Induction of cell cycle arrest in human CCRF-CEM cells assessed as DNA synthesis at 4.14 uM incubated for 2.5 hrs by BrdU incorporation based flow cytometry analysis (reference value: 42.4 +/- 0.66%); format: functional
# M14 = test: Anticancer activity against human M14 cells assessed as cell growth at 10 uM incubated for 48 hrs by sulforhodamine B assay; format: functional; settings: read-out: Activity
# COLO 205 [7] = test: Growth inhibition against human COLO 205 cells assessed as total growth inhibitory concentration incubated for 48 hrs by sulforhodamine B spectrophotometric assay; format: functional
# KM12 = test: Growth inhibition of human KM12 cells incubated for 48 hrs by sulforhodamine B spectrophotometric assay; format: functional
# HT-29 [8] = test: Growth inhibition of human HT-29 cells incubated for 48 hrs by sulforhodamine B spectrophotometric assay; format: functional
# NCI-H460 = test: Growth inhibition of human NCI-H460 cells incubated for 48 hrs by sulforhodamine B spectrophotometric assay; format: functional
# SR [9] = test: Growth inhibition of human SR cells incubated for 48 hrs by sulforhodamine B spectrophotometric assay; format: functional
# [10] = Acute toxicity in C57BL/6 mouse assessed as change in white blood cells at 20 mg/kg,ip administration observed after 22 days; format: organism-based; settings: in vivo, 528 h, time 22 day
# HOP-92 = test: Growth inhibition against human HOP-92 cells assessed as lethal concentration incubated for 48 hrs by sulforhodamine B spectrophotometric assay; format: functional; settings: read-out: LC50 (the source's name)
# COLO 205 [11] = test: Growth inhibition of human COLO 205 cells incubated for 48 hrs by sulforhodamine B spectrophotometric assay; format: functional
# SF-539 = test: Growth inhibition against human SF-539 cells assessed as lethal concentration incubated for 48 hrs by sulforhodamine B spectrophotometric assay; format: functional; settings: read-out: LC50 (the source's name)
# SK-MEL-2 = test: Growth inhibition against human SK-MEL-2 cells assessed as total growth inhibitory concentration incubated for 48 hrs by sulforhodamine B spectrophotometric assay; format: functional
# RPMI-8226 [12] = test: Growth inhibition against human RPMI-8226 cells assessed as total growth inhibitory concentration incubated for 48 hrs by sulforhodamine B spectrophotometric assay; format: functional
# HCT-15 = test: Growth inhibition against human HCT-15 cells assessed as lethal concentration incubated for 48 hrs by sulforhodamine B spectrophotometric assay; format: functional; settings: read-out: LC50 (the source's name)
# EKVX [13] = test: Growth inhibition against human EKVX cells assessed as total growth inhibitory concentration incubated for 48 hrs by sulforhodamine B spectrophotometric assay; format: functional
# NCI/ADR-RES = test: Growth inhibition against human NCI-ADR-RES cells assessed as total growth inhibitory concentration incubated for 48 hrs by sulforhodamine B spectrophotometric assay; format: functional
# SK-MEL-5 [14] = test: Growth inhibition of human SK-MEL-5 cells incubated for 48 hrs by sulforhodamine B spectrophotometric assay; format: functional
# MDA-MB-435 = test: Growth inhibition of human MDA-MB-435 cells incubated for 48 hrs by sulforhodamine B spectrophotometric assay; format: functional
# Hs-578T = test: Growth inhibition against human Hs-578T cells assessed as total growth inhibitory concentration incubated for 48 hrs by sulforhodamine B spectrophotometric assay; format: functional
# MDA-MB-231 = test: Growth inhibition against human MDA-MB-231 cells assessed as total growth inhibitory concentration incubated for 48 hrs by sulforhodamine B spectrophotometric assay; format: functional
# MDA-MB-468 = test: Growth inhibition against human MDA-MB-468 cells assessed as total growth inhibitory concentration incubated for 48 hrs by sulforhodamine B spectrophotometric assay; format: functional
# [15] = Acute toxicity in C57BL/6 mouse assessed as neutrophil count at 20 mg/kg,ip administration and observed after 22 days; format: organism-based; settings: in vivo, 528 h, time 22 day
# NCI-H522 = test: Growth inhibition against human NCI-H522 cells assessed as lethal concentration incubated for 48 hrs by sulforhodamine B spectrophotometric assay; format: functional; settings: read-out: LC50 (the source's name)
# A549 = test: Growth inhibition against human A549 cells assessed as total growth inhibitory concentration incubated for 48 hrs by sulforhodamine B spectrophotometric assay; format: functional
# CCRF-CEM [16] = test: Induction of cell cycle arrest in human CCRF-CEM cells assessed as accumulation of cells at S phase at 4.14 uM incubated for 24 hrs by propidium iodide staining based flow cytometry analysis (reference value: 41.09 +/- 0.5%); format: functional
# SR [17] = test: Growth inhibition against human SR cells assessed as total growth inhibitory concentration incubated for 48 hrs by sulforhodamine B spectrophotometric assay; format: functional
# [18] = Cytotoxicity against human Lymphocyte cells assessed as cell growth inhibition incubated for 72 hrs by MTT assay; format: toxicity, cell-based; settings: lymphocytes
# IGROV-1 [19] = test: Growth inhibition against human IGROV-1 cells assessed as total growth inhibitory concentration incubated for 48 hrs by sulforhodamine B spectrophotometric assay; format: functional
# NCI-H322M = test: Anticancer activity against human NCI-H322M cells assessed as cell growth at 10 uM incubated for 48 hrs by sulforhodamine B assay; format: functional; settings: read-out: Activity
# IGROV-1 [20] = test: Growth inhibition of human IGROV-1 cells incubated for 48 hrs by sulforhodamine B spectrophotometric assay; format: functional
# EKVX [21] = test: Growth inhibition of human EKVX cells incubated for 48 hrs by sulforhodamine B spectrophotometric assay; format: functional
# MCF7 = test: Growth inhibition against human MCF7 cells assessed as lethal concentration incubated for 48 hrs by sulforhodamine B spectrophotometric assay; format: functional; settings: read-out: LC50 (the source's name)
# SK-MEL-28 = test: Growth inhibition against human SK-MEL-28 cells assessed as lethal concentration incubated for 48 hrs by sulforhodamine B spectrophotometric assay; format: functional; settings: read-out: LC50 (the source's name)
# SK-MEL-5 [22] = test: Growth inhibition against human SK-MEL-5 cells assessed as lethal concentration incubated for 48 hrs by sulforhodamine B spectrophotometric assay; format: functional; settings: read-out: LC50 (the source's name)
# BT-549 [23] = test: Anticancer activity against human BT-549 cells assessed as cell growth at 10 uM incubated for 48 hrs by sulforhodamine B assay; format: functional; settings: read-out: Activity
# A498 = test: Growth inhibition against human A498 cells assessed as total growth inhibitory concentration incubated for 48 hrs by sulforhodamine B spectrophotometric assay; format: functional
# HT-29 [24] = test: Growth inhibition against human HT-29 cells assessed as lethal concentration incubated for 48 hrs by sulforhodamine B spectrophotometric assay; format: functional; settings: read-out: LC50 (the source's name)
# [25] = Acute toxicity in C57BL/6 mouse assessed as survival rate at 20 mg/kg,ip administration observed after 22 days; format: organism-based; settings: in vivo, time 22 day
smiles,measurement,setting,value
O=C1C2=C(C(=O)c3c(O)cccc31)C(c1ccco1)c1sc(=O)[nH]c1S2 (stereo not given),TGI,K562 [1],> 100 µM
same,Activity,CCRF-CEM [2],23.46%
same,TGI,Malme-3M,2 µM
same,GI50,BT-549 [3],1.64 µM
same,TGI,TK-10,26.4 µM
same,CC50,RPMI-8226 [4],> 100 µM
same,CC50,K562 [5],> 100 µM
same,Activity,CCRF-CEM [6],19.29%
same,growth at 10 µM,M14,-97.6%
same,TGI,COLO 205 [7],3.61 µM
same,GI50,KM12,3.71 µM
same,GI50,HT-29 [8],3.3 µM
same,GI50,NCI-H460,1.54 µM
same,GI50,SR [9],3.05 µM
same,Activity,[10],Non-Toxic
same,CC50,HOP-92,32.5 µM
same,GI50,COLO 205 [11],1.89 µM
same,CC50,SF-539,7.05 µM
same,TGI,SK-MEL-2,16.4 µM
same,TGI,RPMI-8226 [12],9.83 µM
same,CC50,HCT-15,8.59 µM
same,TGI,EKVX [13],19.4 µM
same,TGI,NCI/ADR-RES,12.3 µM
same,GI50,SK-MEL-5 [14],1.59 µM
same,GI50,MDA-MB-435,1.16 µM
same,TGI,Hs-578T,6.56 µM
same,TGI,MDA-MB-231,9.08 µM
same,TGI,MDA-MB-468,6.59 µM
same,Activity,[15],31.21%
same,CC50,NCI-H522,26.4 µM
same,TGI,A549,3.63 µM
same,Activity,CCRF-CEM [16],41.83%
same,TGI,SR [17],69.5 µM
same,IC50 at 72 h,[18],> 50 µM
same,TGI,IGROV-1 [19],6.14 µM
same,growth at 10 µM,NCI-H322M,-97.7%
same,GI50,IGROV-1 [20],2.51 µM
same,GI50,EKVX [21],6.75 µM
same,CC50,MCF7,8.04 µM
same,CC50,SK-MEL-28,7.42 µM
same,CC50,SK-MEL-5 [22],5.68 µM
same,growth at 10 µM,BT-549 [23],-96.8%
same,TGI,A498,9.69 µM
same,CC50,HT-29 [24],> 100 µM
same,survival at 528 h,[25],100%
